Data reported in US20240125801A1, “MARKER FOR DIAGNOSIS OF NONALCOHOLIC FATTY LIVER DISEASE” (BREXOGEN INC., priority 2021, published 2024).

Test system: mice model of NASH induced by MC-deficient diet
Assay: MCD diet-induced NASH mice model
Format: in vivo, C57BL/6 mice
Settings: BxC-V37e 400 μg/head i.v. or dulaglutide 2 nmol/kg s.c., 4 weeks, FIG. 4
Experimental: Six-week-old C57BL/6 male wild-type mice were obtained from Koatech Co., Ltd. and fed either chow diet (n=6) or a methionine/choline-deficient (MCD) diet (n=15) for […]. Animal care and procedures were approved in the rodent animal facility area of Knotus Co., Ltd. (Korea; Approval Number: 19-KE-265). After the MCD diet was fed for 18 weeks, 2 nmol/kg dulaglutide (GLP-1 receptor agonist) was subcutaneously injected into mice every other day for 4 weeks, and 400 μg/head BxC-e and BxC-V37e were intravenously injected once a day, three times a week, for 4 weeks. At the end of the experiments, the mice were anesthetized, and their serum and liver tissues were collected. […]
Serum samples were collected 4 weeks after the initiation of BxC-V37e injection, and the following parameters were measured using a blood biochemical analyzer (7180, Hitachi, Japan): ALT (Alanine transaminase), AST (Aspartate transaminase), TG (Triglyceride), glucose, TC (total cholesterol), HDL_C (high-density lipoprotein cholesterol), LDL_C (low-density lipoprotein cholesterol), LDH (lactate dehydrogenase), and GGT (gamma-glutamyltransferase).
Liver tissues were fixed in 10% paraformaldehyde and subjected to general tissue treatment, such as cutting, dehydration, and paraffin embedding. […] Both steatosis and hypertrophy were evaluated at magnifications of 40× to 100×. […]

Substance: dulaglutide
- entire liver morphology (colour): No difference
